Patent US20140328933A1, “NOVEL FORMULATIONS AND METHODS” (priority 2010, published 2014)
Where no end group is shown, it is not given here.

Tested on: Angiogenesis in the CAM Model
Experiment: Chorioallantoic Membrane Angiogenesis (CAM) Model, branch points formation
Assay type: in vivo
Text: VIP in Chorioallantoic Membrane Angiogenesis (CAM) Model
FIG. 15 depicts the results of testing regarding Nanoparticle encapsulates.

Substance: Vasoactive intestinal peptide (HSDAVFTDNYTRLRKQMAVKKYLNSILN-NH2) [VIP, peptide hormone containing 28 amino acid residues]
- Total # of branches [VIP (1 ng/CAM) - PBS(average)], Mean (VIP 1 ng/CAM, PBS average subtracted): 34.8
- Total # of branches [VIP (10 ng/CAM) - PBS(average)], Mean (VIP 10 ng/CAM, PBS average subtracted): 53.6
- number of branches, Mean (VIP 0.1 ug/ml, 1 ng/CAM): 84.8
- Total # of branches [VIP (100 ng/CAM) - PBS(average)], Mean (VIP 100 ng/CAM, PBS average subtracted): 71.7
- number of branches, Mean (VIP 1 ug/ml, 10 ng/CAM): 103.6
- number of branches, Mean (VIP 10 ug/ml, 100 ng/CAM): 121.7
